# Source: publication PMC5288202, “Simultaneous inhibition of Vps34 kinase would enhance PI3Kδ inhibitor cytotoxicity in the B-cell malignancies” (Oncotarget, 2016)
# Experiments:
# VPS34 = target: T1, VPS34 (Homo sapiens, UniProt Q8NEB9); assay: ADP-Glo biochemical assay; conditions: purified protein, 50 μM ATP, read-out: IC50 against VPS34
# T1 construct: purchased Invitrogen
# Experimental: The activities of PI3Kα, PI3Kβ, PI3Kδ, PI3Kγ, PI3KC2α, PI3KC2β, Vps34, PI4Kα and PI4Kβ were determined by using ADP-Glo assay, a fluorescence-based immunoassay that measures kinase activity in terms of the amount of ADP produced. A kinase titration was performed to determine the concentration. The amount of recombinant kinases was optimized to keep the reaction velocity within the linear range, to obtain an adequate difference between the resulting signals of sample in/out the presence of enzyme. The optimized enzyme concentrations for evaluating the inhibitory activities of compounds were chosen as follows: 0.16 μg/ml, 6.0 μg/ml, 1.0 μg/ml, 5.0 μg/ml, 5.0 μg/ml, 10.0 μg/ml, 1.2 μg/ml, 1.2 μg/ml and 1.0 μg/ml for PI3Kα, PI3Kβ, PI3Kδ, PI3Kγ, PI3KC2α, PI3KC2β, Vps34, PI4Kα and PI4Kβ, respectively. The ATP concentration was optimized, 10 μM ATP for PI3Kα and PI3Kβ, and 50 μM ATP for detection of the other seven kinases. The PI3Kα, PI3Kβ, PI3Kδ, PI3Kγ, PI3KC2α, PI3KC2β kinase reactions were carried out in 10 μl volume in a 384-well plate in the kinase reaction buffer containing 50 mM Hepes pH 7.5, 3 mM MgCl2, 1 mM EGTA, 1 mM NaCl, 0.03% CHAPS and 2 mM DTT. […] 10 μl kinase detection reagent was dded and incubated for 30 min at room temperature, before the luminescence signal was read with an envision PerkinElmer plate reader.
# PI3Kγ = target: T2, PI3Kγ (Homo sapiens, UniProt P48736); assay: ADP-Glo biochemical assay; conditions: purified protein, 50 μM ATP, read-out: IC50 against PI3Kγ (PIK3CG)
# T2 construct: purchased Invitrogen
# PI3Kδ = PI3Kδ (Homo sapiens, UniProt O00329); assay: PI3K isoforms cellular selectivity assay (AKT phosphorylation, Raji, anti-IgM); type: cell-based; conditions: Raji cells, anti-IgM stimulation
# Experimental: Cells were lysed and AKT phosphorylation was determined by Western Blotting. Intensity of the bands was determined using ImageJ 1.42q (NIH, USA) and normalized to total AKT (loading control).
# CMK = assay: Anti-proliferative effect; type: cell-based; conditions: Homo sapiens, read-out: GI50 CMK
# NB4 = assay: Anti-proliferative effect; type: cell-based; conditions: Homo sapiens, read-out: GI50 NB4
# MOLM-14 = assay: Anti-proliferative effect; type: cell-based; conditions: AML (FLT3-ITD)
# MV4-11 = assay: Anti-proliferative effect; type: cell-based; conditions: AML (FLT3-ITD)
# HEL = assay: Anti-proliferative effect; type: cell-based; conditions: Homo sapiens, read-out: GI50 HEL
# MEC-2 = assay: Anti-proliferative effect; type: cell-based; conditions: MEC2, read-out: GI50 MEC-2
# Hs 505T = assay: Anti-proliferative effect; type: cell-based; conditions: Homo sapiens, read-out: GI50 Hs 505T
# OCI-AML-2 [1] = assay: Colony formation (colonogenic assay); type: cell-based; conditions: Homo sapiens, OCI-AML2
# [2] = system: MV4-11 cell-inoculated xenograft; assay: MV4-11 xenograft tumor model; type: in vivo
# Text: Six week old female nu/nu mice were purchased from the Shanghai Experimental Center, Chinese Science Academy (Shanghai). All animals were maintained in a specific pathogen-free facility and used according to the animal care regulations of Hefei Institutes of Physical Science Chinese Academy of Sciences, and all efforts were made to minimize animal suffering. To obtain an […] in the mice, cells were harvested during exponential growth. 7 million MV4-11 cells in PBS were suspended in a 1:1 mixture with Matrigel (BD Biosciences) and injected into the subcutaneous space on the right flank of nu/nu mice. Daily intraperitoneal injection was initiated when MV4-11 tumors had reached a size of 200 to 400 mm^3. Animals were then randomized into treatment groups of 5 mice each for efficacy studies. […] Body weight and tumor growth were measured daily after PI3KD/V-IN-01 treatment. Tumor volumes were calculated as follows: tumor volume (mm^3)=[(W^2× L)/2] in which width (W) is defined as the smaller of the two measurements and length(L) is defined as the larger of the two measurements.
# TUNEL staining was performed using the POD in Situ Cell Death Detection kit (Roche, USA). Sections were deparaffinized in xylene, rehydrated in decreasing concentrations of ethanol, then treated by nuclease free Proteinase K for 15 min at room temperature before endogenous peroxidase was blocked in 3% H2O2 in methanol. Terminal deoxynucleotidyl transferase (TdT) in reaction buffer was applied to sections for 1h at 37°C. Following washes, the slides were covered by converter-POD solution for 30 min at 37°C. Apoptotic cells were detected after incubation in the 3, 3′-diaminobenzidine (DAB) chromogen (Beyotime Biotechnology) for approximately 8 min and slides were counterstained with hematoxylin.
# Incubations with primary antibodies lasted overnight at 4°C. The secondary detection system was used to visualize antibody binding. Staining was developed with DAB; slides were counterstained with hematoxylin, dehydrated and mounted.
# OCI-AML-3 [3] = assay: Induction of apoptosis (PARP cleavage); type: cell-based; conditions: OCI-AML-3, concentrations up to 10 μM
# OCI-AML-3 [4] = assay: Cell cycle analysis; type: cell-based; conditions: OCI-AML-3, 48 h treatment
# OCI-AML-2 [5] = assay: Cell cycle analysis; type: cell-based; conditions: OCI-AML-2, 48 h treatment
# [6] = immunohistochemistry, MV4-11 xenograft
# T1 sequence (Q8NEB9 whole entry): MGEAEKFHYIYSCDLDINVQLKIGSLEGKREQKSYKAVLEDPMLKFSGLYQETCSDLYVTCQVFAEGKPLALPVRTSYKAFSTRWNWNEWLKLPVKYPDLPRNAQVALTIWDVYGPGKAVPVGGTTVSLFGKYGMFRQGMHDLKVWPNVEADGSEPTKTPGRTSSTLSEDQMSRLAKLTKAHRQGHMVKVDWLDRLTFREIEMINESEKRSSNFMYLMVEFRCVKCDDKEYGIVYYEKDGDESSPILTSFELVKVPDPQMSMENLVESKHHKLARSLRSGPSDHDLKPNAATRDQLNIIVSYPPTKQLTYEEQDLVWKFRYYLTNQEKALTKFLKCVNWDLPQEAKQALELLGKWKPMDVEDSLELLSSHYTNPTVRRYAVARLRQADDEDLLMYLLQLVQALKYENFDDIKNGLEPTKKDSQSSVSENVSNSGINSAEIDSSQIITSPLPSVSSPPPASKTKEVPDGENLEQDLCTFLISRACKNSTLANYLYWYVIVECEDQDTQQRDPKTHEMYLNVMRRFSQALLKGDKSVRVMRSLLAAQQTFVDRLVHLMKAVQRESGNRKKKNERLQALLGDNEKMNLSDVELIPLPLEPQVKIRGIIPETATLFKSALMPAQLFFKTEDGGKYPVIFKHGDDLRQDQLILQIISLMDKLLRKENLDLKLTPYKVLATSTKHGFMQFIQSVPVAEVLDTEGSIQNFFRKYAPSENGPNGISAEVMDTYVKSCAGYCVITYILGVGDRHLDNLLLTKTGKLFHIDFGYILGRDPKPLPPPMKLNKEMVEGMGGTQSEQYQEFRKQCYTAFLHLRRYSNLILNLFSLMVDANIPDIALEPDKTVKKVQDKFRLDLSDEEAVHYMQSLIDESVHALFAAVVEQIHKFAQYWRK
# T2 sequence (P48736 whole entry): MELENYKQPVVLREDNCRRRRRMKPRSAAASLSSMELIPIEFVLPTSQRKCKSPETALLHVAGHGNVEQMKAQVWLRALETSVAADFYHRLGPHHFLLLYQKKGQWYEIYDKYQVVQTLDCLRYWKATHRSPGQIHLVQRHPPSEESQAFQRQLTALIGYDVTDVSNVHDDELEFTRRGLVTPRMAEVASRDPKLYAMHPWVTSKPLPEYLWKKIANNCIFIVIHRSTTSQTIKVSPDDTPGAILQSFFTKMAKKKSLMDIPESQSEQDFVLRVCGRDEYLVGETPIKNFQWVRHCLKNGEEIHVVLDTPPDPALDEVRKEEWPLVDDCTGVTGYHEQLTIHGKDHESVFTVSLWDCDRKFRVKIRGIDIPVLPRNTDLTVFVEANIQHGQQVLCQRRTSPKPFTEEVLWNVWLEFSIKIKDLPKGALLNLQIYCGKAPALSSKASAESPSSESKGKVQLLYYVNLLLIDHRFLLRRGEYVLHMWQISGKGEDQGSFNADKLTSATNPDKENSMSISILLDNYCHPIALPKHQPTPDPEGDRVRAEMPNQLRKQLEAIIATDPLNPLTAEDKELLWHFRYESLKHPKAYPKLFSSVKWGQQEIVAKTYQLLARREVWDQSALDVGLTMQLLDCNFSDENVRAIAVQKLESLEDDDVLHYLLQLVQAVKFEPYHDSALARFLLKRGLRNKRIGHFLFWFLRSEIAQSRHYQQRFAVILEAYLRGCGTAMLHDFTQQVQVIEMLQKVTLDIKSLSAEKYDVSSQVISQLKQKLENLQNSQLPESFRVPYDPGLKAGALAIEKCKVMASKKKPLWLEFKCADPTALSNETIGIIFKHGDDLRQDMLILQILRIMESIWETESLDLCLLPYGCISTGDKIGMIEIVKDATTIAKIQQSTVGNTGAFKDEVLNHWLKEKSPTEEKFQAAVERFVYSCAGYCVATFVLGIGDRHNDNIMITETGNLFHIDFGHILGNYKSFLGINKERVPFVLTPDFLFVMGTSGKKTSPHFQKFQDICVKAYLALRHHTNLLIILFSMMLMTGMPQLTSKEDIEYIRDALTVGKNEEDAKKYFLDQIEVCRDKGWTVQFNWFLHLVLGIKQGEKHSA
# Chain of PI3Kδ (O00329 whole entry, canonical isoform): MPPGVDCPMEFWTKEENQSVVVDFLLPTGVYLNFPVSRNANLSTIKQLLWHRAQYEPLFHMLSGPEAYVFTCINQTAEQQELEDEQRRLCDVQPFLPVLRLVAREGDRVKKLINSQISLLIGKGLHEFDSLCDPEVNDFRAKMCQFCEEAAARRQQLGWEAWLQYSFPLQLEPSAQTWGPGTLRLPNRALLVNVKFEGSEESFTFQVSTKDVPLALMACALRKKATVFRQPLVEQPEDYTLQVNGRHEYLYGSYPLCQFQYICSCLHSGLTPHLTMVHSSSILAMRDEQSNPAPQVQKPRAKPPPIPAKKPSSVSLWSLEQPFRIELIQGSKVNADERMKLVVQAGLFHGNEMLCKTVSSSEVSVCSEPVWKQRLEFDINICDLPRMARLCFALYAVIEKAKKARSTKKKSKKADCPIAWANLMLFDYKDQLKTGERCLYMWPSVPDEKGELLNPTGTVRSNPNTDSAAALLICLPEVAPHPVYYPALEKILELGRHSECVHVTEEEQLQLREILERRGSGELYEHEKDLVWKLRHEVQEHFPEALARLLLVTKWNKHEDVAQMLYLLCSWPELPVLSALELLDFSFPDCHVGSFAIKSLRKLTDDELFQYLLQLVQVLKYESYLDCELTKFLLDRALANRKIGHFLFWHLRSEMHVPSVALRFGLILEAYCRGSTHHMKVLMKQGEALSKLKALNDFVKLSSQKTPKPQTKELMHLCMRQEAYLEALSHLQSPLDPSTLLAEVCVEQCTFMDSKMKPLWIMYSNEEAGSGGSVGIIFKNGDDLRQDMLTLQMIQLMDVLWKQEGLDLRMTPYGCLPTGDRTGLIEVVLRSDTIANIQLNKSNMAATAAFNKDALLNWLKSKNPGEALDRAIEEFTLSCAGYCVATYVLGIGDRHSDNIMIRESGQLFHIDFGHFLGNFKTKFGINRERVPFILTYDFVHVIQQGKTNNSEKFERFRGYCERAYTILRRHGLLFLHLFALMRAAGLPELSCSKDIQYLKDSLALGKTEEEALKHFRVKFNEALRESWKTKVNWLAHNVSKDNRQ
# Chain of PI3Kδ (P27986 whole entry partner, canonical isoform): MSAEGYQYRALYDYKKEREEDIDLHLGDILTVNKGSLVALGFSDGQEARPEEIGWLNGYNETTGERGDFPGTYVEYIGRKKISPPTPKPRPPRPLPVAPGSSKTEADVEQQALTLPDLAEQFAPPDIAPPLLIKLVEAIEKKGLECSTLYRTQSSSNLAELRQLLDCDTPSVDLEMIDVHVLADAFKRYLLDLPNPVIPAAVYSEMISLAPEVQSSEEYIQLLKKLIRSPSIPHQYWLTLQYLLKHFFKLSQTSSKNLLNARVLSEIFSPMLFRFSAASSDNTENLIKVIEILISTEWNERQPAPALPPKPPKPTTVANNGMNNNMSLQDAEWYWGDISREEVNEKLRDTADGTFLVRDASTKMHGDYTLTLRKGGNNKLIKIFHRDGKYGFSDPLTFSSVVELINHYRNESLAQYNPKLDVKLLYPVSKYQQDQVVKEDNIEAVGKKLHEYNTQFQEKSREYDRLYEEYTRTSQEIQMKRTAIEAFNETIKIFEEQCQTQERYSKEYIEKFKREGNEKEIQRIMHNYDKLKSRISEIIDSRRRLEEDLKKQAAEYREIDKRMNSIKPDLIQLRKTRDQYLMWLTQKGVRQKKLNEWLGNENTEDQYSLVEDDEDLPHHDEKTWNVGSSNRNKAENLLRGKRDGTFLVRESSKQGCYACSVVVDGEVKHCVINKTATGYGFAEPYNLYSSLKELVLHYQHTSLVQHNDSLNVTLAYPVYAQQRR
structure (smiles),measurement,setting,value
"Cc1nc(NC(=O)CN)sc1-c1cnc(Cl)c(NS(=O)(=O)c2ccc(C(C)(C)C)cc2)c1 [PI3KD/V-IN-01, 2-amino-N-(5-(5-(4-tert-butylphenylsulfonamido)-6-chloropyridin-3-yl)-4-methylthiazol-2-yl)acetamide]",IC50,VPS34,19 nM
same,IC50,PI3Kγ,119 nM
same,EC50,PI3Kδ,11 nM
same,GI50,CMK,2000 nM
same,GI50,NB4,1400 nM
same,GI50,MOLM-14,510 nM
same,GI50,"MOLM-14; Homo sapiens, MOLM-14",< 1000 nM
same,GI50,MV4-11,780 nM
same,GI50,"MV4-11; Homo sapiens, MV4-11",< 1000 nM
same,GI50,HEL,> 10000 nM
same,GI50,MEC-2,2400 nM
same,GI50,Hs 505T,> 10000 nM
same,EC50,OCI-AML-2 [1],145 nM
same,TGI (Tumor growth inhibition),"[2]; 50 mg/kg/day administered intraperitoneal, MV4-11 xenograft mice",86.8%
same,effect on body weight,"[2]; 50 mg/kg/day, MV4-11 xenograft mice",no apparent effects on body weight
same,apoptosis in tumor tissue (TUNEL stain),[2]; [6],dose-dependently increased
same,cell proliferation in tumor tissue (Ki67 stain),[2]; [6],dose-dependently inhibited
same,induction of apoptosis,OCI-AML-3 [3],no apoptosis was observed
same,cell cycle progression,OCI-AML-3 [4],arrested in the G0/G1 phase
same,cell cycle progression,OCI-AML-2 [5],no apparent cell cycle inhibition
